Numbers after ± are expanded uncertainties.
Test: xn = mol fraction of the nth substance listed
Conditions: Liquid, Pulse-echo method

CCCCCCC [heptane] + CCCO
speed of sound (298.17 K, 30400 kPa, x2 = 0.3008): 1319.3 ± 1.1 m/s
speed of sound (298.17 K, 45590 kPa, x2 = 0.3008): 1394.1 ± 1.2 m/s
speed of sound (298.17 K, 60790 kPa, x2 = 0.3008): 1461.5 ± 1.2 m/s
speed of sound (298.17 K, 60790 kPa, x2 = 0.7986): 1471.8 ± 1.1 m/s
speed of sound (298.17 K, 75990 kPa, x2 = 0.1008): 1526.8 ± 1.2 m/s
speed of sound (298.17 K, 75990 kPa, x2 = 0.3008): 1523.2 ± 1.2 m/s
speed of sound (298.17 K, 75990 kPa, x2 = 0.7986): 1529.5 ± 1.2 m/s
speed of sound (298.17 K, 91190 kPa, x2 = 0.1008): 1584.5 ± 1.3 m/s
speed of sound (298.17 K, 91190 kPa, x2 = 0.7016): 1580.7 ± 1.2 m/s
speed of sound (298.17 K, 111450 kPa, x2 = 0.7016): 1647.6 ± 1.2 m/s
speed of sound (298.18 K, 100 kPa, x2 = 0.3008): 1128.6 ± 1.1 m/s
speed of sound (298.18 K, 100 kPa, x2 = 0.6027): 1144.3 ± 1 m/s
speed of sound (298.18 K, 45590 kPa, x2 = 0): 1400.1 ± 1.2 m/s
speed of sound (298.18 K, 60790 kPa, x2 = 0.1008): 1464.2 ± 1.2 m/s
speed of sound (298.18 K, 60790 kPa, x2 = 0.7016): 1467.2 ± 1.1 m/s
speed of sound (298.18 K, 75990 kPa, x2 = 0.7016): 1526 ± 1.2 m/s
speed of sound (298.18 K, 101320 kPa, x2 = 0.7016): 1614.9 ± 1.2 m/s
speed of sound (298.18 K, 111450 kPa, x2 = 0.1008): 1655.1 ± 1.3 m/s
speed of sound (298.18 K, 121580 kPa, x2 = 0.7016): 1678.9 ± 1.3 m/s
speed of sound (298.19 K, 30400 kPa, x2 = 0.6027): 1326.4 ± 1.1 m/s
speed of sound (298.19 K, 45590 kPa, x2 = 0.6027): 1398.6 ± 1.1 m/s
speed of sound (298.19 K, 45590 kPa, x2 = 0.7016): 1403 ± 1.1 m/s
speed of sound (298.19 K, 60790 kPa, x2 = 0): 1468.7 ± 1.2 m/s
speed of sound (298.19 K, 91190 kPa, x2 = 0.3008): 1580.1 ± 1.2 m/s
speed of sound (298.19 K, 91190 kPa, x2 = 0.6027): 1579 ± 1.2 m/s
speed of sound (298.2 K, 100 kPa, x2 = 0.7016): 1154 ± 1 m/s
speed of sound (298.2 K, 30400 kPa, x2 = 0.7016): 1332.1 ± 1.1 m/s
speed of sound (298.2 K, 121580 kPa, x2 = 0.7986): 1679.9 ± 1.3 m/s
speed of sound (298.22 K, 75990 kPa, x2 = 0.6027): 1523.5 ± 1.2 m/s
speed of sound (298.23 K, 60790 kPa, x2 = 0.6027): 1463.6 ± 1.2 m/s
speed of sound (298.25 K, 101320 kPa, x2 = 0.7986): 1616.7 ± 1.2 m/s
speed of sound (298.26 K, 91190 kPa, x2 = 0.7986): 1583 ± 1.2 m/s
speed of sound (303.06 K, 100 kPa, x2 = 0): 1108.9 ± 1.1 m/s
speed of sound (303.07 K, 45590 kPa, x2 = 0): 1384.4 ± 1.2 m/s
speed of sound (303.08 K, 60790 kPa, x2 = 0.6027): 1449.5 ± 1.2 m/s
speed of sound (303.08 K, 101320 kPa, x2 = 0.6027): 1601.2 ± 1.2 m/s
speed of sound (303.09 K, 101320 kPa, x2 = 0.7986): 1604.9 ± 1.2 m/s
speed of sound (303.1 K, 75990 kPa, x2 = 0.7986): 1516.7 ± 1.2 m/s
speed of sound (303.1 K, 91190 kPa, x2 = 0.7986): 1570.9 ± 1.2 m/s
speed of sound (303.1 K, 101320 kPa, x2 = 0): 1612.6 ± 1.3 m/s
speed of sound (303.1 K, 111450 kPa, x2 = 0.6027): 1634.7 ± 1.2 m/s
speed of sound (303.1 K, 121580 kPa, x2 = 0): 1681.2 ± 1.3 m/s
speed of sound (303.11 K, 111450 kPa, x2 = 0.4992): 1635.3 ± 1.3 m/s
speed of sound (303.11 K, 121580 kPa, x2 = 0.4992): 1667.7 ± 1.3 m/s
speed of sound (303.11 K, 121580 kPa, x2 = 0.7986): 1668.6 ± 1.3 m/s
speed of sound (303.12 K, 100 kPa, x2 = 0.7986): 1147.6 ± 1 m/s
speed of sound (303.12 K, 30400 kPa, x2 = 0.7986): 1324.1 ± 1.1 m/s
speed of sound (303.12 K, 45590 kPa, x2 = 0.7016): 1388.2 ± 1.1 m/s
speed of sound (303.12 K, 45590 kPa, x2 = 0.7986): 1394.5 ± 1.1 m/s
speed of sound (303.12 K, 101320 kPa, x2 = 0.4992): 1601.3 ± 1.2 m/s
speed of sound (303.12 K, 111450 kPa, x2 = 0.7986): 1637.5 ± 1.2 m/s
speed of sound (303.12 K, 121580 kPa, x2 = 0.7016): 1667.3 ± 1.3 m/s
speed of sound (303.13 K, 30400 kPa, x2 = 0): 1307 ± 1.2 m/s
speed of sound (303.13 K, 30400 kPa, x2 = 0.7016): 1316.2 ± 1.1 m/s
speed of sound (303.13 K, 60790 kPa, x2 = 0.7986): 1458.1 ± 1.1 m/s
speed of sound (303.13 K, 75990 kPa, x2 = 0.7016): 1512.7 ± 1.2 m/s
speed of sound (303.13 K, 91190 kPa, x2 = 0.4992): 1565.8 ± 1.2 m/s
speed of sound (303.13 K, 91190 kPa, x2 = 0.7016): 1567.8 ± 1.2 m/s
speed of sound (303.13 K, 101320 kPa, x2 = 0.7016): 1602.5 ± 1.2 m/s
speed of sound (303.13 K, 111450 kPa, x2 = 0.7016): 1635.6 ± 1.2 m/s
speed of sound (303.14 K, 100 kPa, x2 = 0.7016): 1134.5 ± 1 m/s
speed of sound (303.14 K, 30400 kPa, x2 = 0.4992): 1306.5 ± 1.1 m/s
speed of sound (303.14 K, 30400 kPa, x2 = 0.6027): 1310 ± 1.1 m/s
speed of sound (303.14 K, 60790 kPa, x2 = 0.7016): 1453.1 ± 1.1 m/s
speed of sound (303.14 K, 75990 kPa, x2 = 0.4992): 1509.2 ± 1.2 m/s
speed of sound (303.14 K, 91190 kPa, x2 = 0.6027): 1565.9 ± 1.2 m/s
speed of sound (303.15 K, 100 kPa, x2 = 0.6027): 1124 ± 1 m/s
speed of sound (303.15 K, 45590 kPa, x2 = 0.6027): 1383.2 ± 1.1 m/s
speed of sound (303.15 K, 60790 kPa, x2 = 0.4992): 1448 ± 1.2 m/s
speed of sound (303.15 K, 75990 kPa, x2 = 0.6027): 1509.9 ± 1.2 m/s
speed of sound (303.15 K, 111450 kPa, x2 = 0): 1647.6 ± 1.3 m/s
speed of sound (303.16 K, 100 kPa, x2 = 0.4992): 1116 ± 1.1 m/s
speed of sound (303.16 K, 15200 kPa, x2 = 0.1008): 1213.6 ± 1.1 m/s
speed of sound (303.16 K, 45590 kPa, x2 = 0.4992): 1380.9 ± 1.1 m/s
speed of sound (303.16 K, 121580 kPa, x2 = 0.3008): 1669.9 ± 1.3 m/s
speed of sound (303.17 K, 15200 kPa, x2 = 0): 1218.6 ± 1.1 m/s
speed of sound (303.17 K, 75990 kPa, x2 = 0): 1517.2 ± 1.3 m/s
speed of sound (303.17 K, 101320 kPa, x2 = 0.1008): 1607.1 ± 1.3 m/s
speed of sound (303.17 K, 101320 kPa, x2 = 0.3008): 1602.4 ± 1.3 m/s
speed of sound (303.18 K, 60790 kPa, x2 = 0): 1453.7 ± 1.2 m/s
speed of sound (303.18 K, 91190 kPa, x2 = 0): 1575.7 ± 1.3 m/s
speed of sound (303.18 K, 111450 kPa, x2 = 0.1008): 1642 ± 1.3 m/s
speed of sound (303.18 K, 121580 kPa, x2 = 0.6027): 1666.6 ± 1.3 m/s
speed of sound (303.19 K, 121580 kPa, x2 = 0.1008): 1675.4 ± 1.3 m/s
speed of sound (303.2 K, 100 kPa, x2 = 0.3008): 1107.1 ± 1.1 m/s
speed of sound (303.2 K, 30400 kPa, x2 = 0.3008): 1301.8 ± 1.1 m/s
speed of sound (303.2 K, 60790 kPa, x2 = 0.1008): 1448.8 ± 1.2 m/s
speed of sound (303.21 K, 30400 kPa, x2 = 0.1008): 1301.9 ± 1.1 m/s
speed of sound (303.21 K, 45590 kPa, x2 = 0.1008): 1379.3 ± 1.2 m/s
speed of sound (303.21 K, 60790 kPa, x2 = 0.3008): 1446 ± 1.2 m/s
speed of sound (303.21 K, 75990 kPa, x2 = 0.1008): 1512.1 ± 1.2 m/s
speed of sound (303.21 K, 75990 kPa, x2 = 0.3008): 1508.5 ± 1.2 m/s
speed of sound (303.21 K, 91190 kPa, x2 = 0.1008): 1570.5 ± 1.3 m/s
speed of sound (303.21 K, 91190 kPa, x2 = 0.3008): 1566.1 ± 1.2 m/s
speed of sound (303.22 K, 100 kPa, x2 = 0.1008): 1103.8 ± 1.1 m/s
speed of sound (303.23 K, 45590 kPa, x2 = 0.3008): 1377.7 ± 1.2 m/s
speed of sound (303.25 K, 111450 kPa, x2 = 0.3008): 1636.9 ± 1.3 m/s

Reference: the NIST ThermoML archive (doi:10.1021/je030136n)
